BindingDB's records for patent US20250066368 (Shanghai Apeiron Therapeutics Company, 2025)

Target: T1, DNA polymerase theta [1792-2590] (UniProt O75417)
T1 construct: 1792-2590
T1 sequence (O75417 whole entry): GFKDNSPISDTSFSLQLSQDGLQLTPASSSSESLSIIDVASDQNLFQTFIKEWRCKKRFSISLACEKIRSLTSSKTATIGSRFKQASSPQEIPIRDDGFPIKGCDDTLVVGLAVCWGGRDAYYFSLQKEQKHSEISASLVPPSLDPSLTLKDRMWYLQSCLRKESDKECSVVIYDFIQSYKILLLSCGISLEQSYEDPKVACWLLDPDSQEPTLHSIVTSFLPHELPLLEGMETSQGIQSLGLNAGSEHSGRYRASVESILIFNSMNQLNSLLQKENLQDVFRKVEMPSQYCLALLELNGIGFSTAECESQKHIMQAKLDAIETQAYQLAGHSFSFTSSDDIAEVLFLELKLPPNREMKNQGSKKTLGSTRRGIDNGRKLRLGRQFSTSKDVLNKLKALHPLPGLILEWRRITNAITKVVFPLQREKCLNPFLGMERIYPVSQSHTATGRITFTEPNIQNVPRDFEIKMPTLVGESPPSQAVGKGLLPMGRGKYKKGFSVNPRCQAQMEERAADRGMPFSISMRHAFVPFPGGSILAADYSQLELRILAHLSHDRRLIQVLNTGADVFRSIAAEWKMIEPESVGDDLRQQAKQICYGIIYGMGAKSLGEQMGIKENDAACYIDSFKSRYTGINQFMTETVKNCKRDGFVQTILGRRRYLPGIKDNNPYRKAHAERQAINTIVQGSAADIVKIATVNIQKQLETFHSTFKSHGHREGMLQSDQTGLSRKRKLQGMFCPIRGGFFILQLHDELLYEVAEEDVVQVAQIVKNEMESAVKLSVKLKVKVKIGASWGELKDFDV
Assay: ADP-Glo Kinase Assay
Description: The ability of compounds to inhibit Pol 0 polymerase activity was determined by the PicoGreen method in vitro.The His-TEV-SUMO-tagged Polθ protein (amino acids 1792-2590) expressed in E. coli was purified and stored in aliquots at −80° C.The composition of the assay buffer is 25 mM Tris HCl pH 7.5, 12.5 mM NaCl, 0.5 mM MgCl2, 5% glycerol, 0.01% Triton X-100, 0.01% BSA, and 1 mM DTT.Test compounds were diluted in 100% DMSO and diluted three-fold into 10 concentration points in a dilution plate (Greiner-781280) using Bravo (Agilent) according to concentration requirements. The compounds diluted in DMSO were then diluted 20-fold in the assay buffer using Bravo. Further, 2 μl of diluted compounds were transferred to the assay plate (Corning-4512) using Bravo. The purified Pol 0 enzyme and primers ((primer strand: 5′-GCGGCTGTCATAAG-3′, SEQ ID NO: 1):(template strand: 5′-[…]-3′, SEQ ID NO: 2)=1:1.1) were prepared at a working concentration of 2.5× (1.5 nM Polθ and 50 nM PTD) in the assay buffer, transferred to the assay plate at 4 μl per well using an E1-CLIPTIP 12-channel pipette (Thermo, 1-30 l), and incubated at room temperature for 30 min. dNTP (Sigma-D7295) was diluted with the assay buffer to a working concentration of 2.5× (40 uM dNTP), transferred to the assay plate at 4 μl per well (final DMSO concentration of 1%) using an El-CLIPTIP 12-channel pipette (Thermo, 1-30 l), and incubated at room temperature for 60 min. A mixture containing 10 mM EDTA, 25 mM Tris pH 7.5, and a 1:200 diluted PicoGreen dye (Invitrogen-P7581) was added to the assay plate at 6 μl per well to stop the reaction. After 30 min of reaction at room temperature in the dark, fluorescence values were read on EnVision 2105 (PerkinElmer) using the Ex480 nm Em520 nm program, and the raw data was analyzed using XLfit to generate IC50 values.

Row | SMILES | IC50 [nM]
1 | CN(C(=O)[C@@H]1[C@H](O)[C@H](O)C(=O)N1c1cc(C(F)(F)F)c2c(n1)CCC2)c1cc(Cl)c(F)cc1F [US20250066368, Compound 7] | < 50
2 | [2H]C([2H])([2H])N(C(=O)C1[C@H](O)[C@H](O)C(=O)N1c1cc(C(F)(F)F)c2ccsc2n1)c1cc(Cl)c(F)cc1F (some centres not stated) [US20250066368, Compound 16] | < 50
3 | [2H]C([2H])([2H])N(C(=O)[C@@H]1[C@H](O)[C@H](O)C(=O)N1c1cc(C(F)(F)F)c2c(n1)CC=C2)c1cc(Cl)c(F)cc1F [US20250066368, Compound 19] | < 50
4 | CN(C(=O)[C@@H]1CNC(=O)N1c1cc(C(F)(F)F)c2c(n1)C=CC2)c1ccc(F)c(Cl)c1F [US20250066368, Compound 21] | < 50
5 | [2H]C([2H])([2H])N(C(=O)[C@@H]1[C@H](O)[C@H](O)C(=O)N1c1cc(C(F)(F)F)c2ncsc2n1)c1cc(Cl)c(F)cc1F [US20250066368, Compound 26] | < 50
6 | [2H]C([2H])([2H])N(C(=O)[C@@H]1[C@H](O)[C@H](O)C(=O)N1c1cc(C(F)(F)F)c2c(n1)C(=O)CC2)c1cc(Cl)c(F)cc1F [US20250066368, Compound 45] | < 50
7 | [2H]C([2H])([2H])N(C(=O)[C@@H]1[C@H](O)[C@H](O)C(=O)N1c1cc(C(F)(F)F)c2cc[se]c2n1)c1cc(Cl)c(F)cc1F [US20250066368, Compound 46] | < 50
